Patent US20220315574A1, “Beta-Arrestin-Modulating Compounds and Methods of Using Same” (Duke University, priority 2019, published 2022)
Counter-ions that a name gives are not always drawn.

Experiments:
βarr2 [1] = target: T1, βarr2 (Rattus norvegicus, UniProt P29067); assay: Negative-stain electron microscopy, 2D class averages of βarr2; parameters: final βarr2 (truncated βarr2 at 394) concentration of ˜1 mg/mL; made in house
Experimental: To prepare for EM visualization of the architecture and structural organization of βarr2-Cmpd30 complexes, purified βarr2 (394) was diluted to 0.5 μM and incubated with 5 μM Cmpd-30 or vehicle (DMSO) in HN buffer (20 mM HEPES pH 7.4 and 150 mM NaCl) for 7 min at room temperature followed by dilution 10× into HN buffer containing 1 μM Cmpd-30, before negative staining. The positive control, βarr2 bound to IP6 sample was prepared similarly (5 μM and 250 μM, respectively) and was diluted 100× into HN buffer containing 10 μM IP6. Grids were prepared using conventional negative-staining protocols as described previously (Peisley, A. & Skiniotis, G. 2D Projection Analysis of GPCR Complexes by Negative Stain Electron Microscopy. Methods Mol Biol 1335, 29-38, doi:10.1007/978-1-4939-2914-6_3 (2015). Briefly, 3 μL of samples were applied onto a glow-discharged EM carbon-coated copper grid, adsorbed on the grid surface, blotted, stained, and air dried before imaging. EM grids were examined with a FEI Tecnai G2 Twin electron microscope and operated at an acceleration voltage of 120 kV. Images were recorded with an Eagle 2K CCD camera at a magnification of ×65,200 and a defocus value of ˜1.5 μm. Two-dimensional EM reference-free alignment and classification of particle projections were performed with the iterative stable alignment and clustering procedure (ISAC)(Yang, Z., et al., Iterative stable alignment and clustering of 2D transmission electron microscope images. Structure 20, 237-247, doi:10.1016/j.str.2011.12.007 (2012)). EM single particles were both automatically and manually selected using Boxer (part of the EMAN 2.1 software suite)(Tang, G. et EMAN2: an extensible image processing suite for electron microscopy. J Struct Biol 157, 38-46, doi:10.1016/j.jsb.2006.05.009 (2007)). A total of ˜250,000 0° particles projections were picked representing all the three βarr2 samples (with vehicle, Cmpd-30 or IP6) and windowed into 96×96-pixel images (with the RELION 2.1-beta-1 software package) and subjected to ISAC. […]

βarr2 [2] = target: T1, βarr2; assay: Dynamic light scattering (DLS) of βarr2; parameters: final βarr2 (truncated βarr2 at 394) concentration of ˜1 mg/mL; made in house; settings: control βarr2 7.1 nm; Cmpd-30 60 μM
Experimental: DLS was performed on a Zetasizer Nano ZS instrument (Malvern Instruments, UK) at an excitation He—Ne laser source of 633 nm and a detector at a scattering angle of 173°. The measurements were obtained at 25° C. and defined time intervals. A low volume (100 μl) disposable sample cuvette was used (BRAND, Wertheim, Germany). The protein solutions used for all particle size measurements were at a final βarr2 (truncated βarr2 at 394) concentration of ˜1 mg/mL (20 μM) in a buffer consisting of […] (pH 7.4) and 150 mM NaCl in presence of Cmpd-30 (60 μM), IP6 (300 uM) or vehicle (DMSO). Size distributions of scattering particles of different βarr2 sample were obtained after data analysis performed on intensity and volume size distribution curves and the molecular mass and Z-average size calculated using Malvern DTS software.

T1 sequence (P29067 1-394): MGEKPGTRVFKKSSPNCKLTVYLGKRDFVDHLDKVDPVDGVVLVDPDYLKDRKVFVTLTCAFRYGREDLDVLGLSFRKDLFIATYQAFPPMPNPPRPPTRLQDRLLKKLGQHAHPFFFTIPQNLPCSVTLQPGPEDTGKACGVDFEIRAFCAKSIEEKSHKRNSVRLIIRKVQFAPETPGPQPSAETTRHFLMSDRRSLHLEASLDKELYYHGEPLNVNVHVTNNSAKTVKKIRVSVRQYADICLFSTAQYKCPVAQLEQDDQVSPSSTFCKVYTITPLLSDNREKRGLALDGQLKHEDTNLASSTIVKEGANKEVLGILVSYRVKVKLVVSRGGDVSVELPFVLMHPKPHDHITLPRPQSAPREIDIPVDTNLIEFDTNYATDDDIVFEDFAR

CN(C)c1n/c(=N/Cc2ccco2)ss1 [Cmpd-30, 5-(furan-2-ylmethylimino)-N,N-dimethyl-1,2,4-dithiazol-3-amine;hydrobromide]
particle average width of βarr2 class averages (βarr2 [1]; control βarr2 ~72 Å): 80-90 Å | class averages represented as homo-oligomers (dimers/trimers) (βarr2 [1]; control βarr 97% monomeric): 95% | particle (hydrodynamic) diameter of βarr2 (βarr2 [2]): 8.2 nm
